This is an account of results in patent publication US20140328930A1, “Pharmaceutical Compositions” (Alpharma Pharmaceuticals, LLC, priority 2007, published 2014).

One series is described as follows: clinical. The conditions noted are these: human, in vivo, 2.4 mg.
The conditions of series [1]: single dose 2.4 mg naltrexone, fasted.
For series [2] the following is noted: cited from earlier work.

Structures can show the parent of a compound that is named as a salt.

Broadly, the Tmax is the time at which the peak concentration occurs. The term AUC(0-t) denotes the area under the concentration-time curve up to a stated or last time point. Lower therefore signals less exposure. As usually defined, the AUC(0-inf) is total exposure, with the tail of the curve extrapolated. Higher therefore signals high exposure. In general, Cmax refers to the maximum level reached in the sampled fluid or tissue. Regarding `O=C1CC[C@@]2(O)[C@H]3Cc4ccc(O)c5c4[C@@]2(CCN3CC2CC2)[C@H]1O5` [Naltrexone HCl Solution], in “clinical”, the Tmax was 1.13 h, the concentration at 0 h amounted to 0 ng/mL, the concentration at 0.5 h was found to be 0.455 ng/mL and the concentration at 1 h is 0.629 ng/mL. Also, in the series “clinical”, the concentration at 2 h came to 0.465 ng/mL, the concentration at 3 h was 0.286 ng/mL, the concentration at 4 h was found to be 0.182 ng/mL and the concentration at 5 h was found to be 0.133 ng/mL. Also, in “clinical”, the concentration at 6 h was determined as 0.0957 ng/mL, the concentration at 8 h amounted to 0.0518 ng/mL, the concentration at 10 h was determined as 0.0287 ng/mL and the concentration at 12 h was 0.0205 ng/mL. For the same molecule, in the series “clinical”, the concentration at 16 h came out at 0.00996 ng/mL, the concentration at 24 h stood at 0.00316 ng/mL, the concentration at 36 h was determined as 0.000607 ng/mL and the concentration at 48 h came to 0 ng/mL. Besides, in the series “clinical”, the concentration at 60 h stood at 0 ng/mL, the concentration at 72 h is 0 ng/mL, the concentration at 84 h was 0 ng/mL and the concentration at 96 h is 0 ng/mL. This molecule showed a concentration at 120 h in “clinical” of 0 ng/mL. Also, the area under the curve AUC(0-t) in “clinical” (Naltrexone AUC0-t, Mean, single dose 2.4 mg naltrexone, fasted) turned out to be 2.2 ng·h/mL. Besides, in “clinical” (Naltrexone AUCinf, Mean, single dose 2.4 mg naltrexone, fasted), the AUC(0-inf) was found to be 2.24 ng·h/mL. The molecule further yielded a Cmax in “clinical” (Naltrexone Cmax, Mean, single dose 2.4 mg naltrexone, fasted) of 0.689 ng/mL. In addition, in the series “clinical” (Naltrexone ln(AUCinf), Geometric Mean, Least Squares Mean of log-transformed values), the AUC(0-inf) was determined as 1.99 ng·h/mL. In the series “clinical” (Naltrexone ln(AUClast), Geometric Mean, Least Squares Mean of log-transformed values), this molecule registered an AUC(0-t) of 1.95 ng·h/mL. Moreover, the Cmax in the series “clinical” (Naltrexone ln(Cmax), Geometric Mean, Least Squares Mean of log-transformed values) was 0.58 ng/mL. In series [1], the “Naltrexone Tlast, Mean” value amounted to 20.00 h and the “Naltrexone λz, Mean” value was 0.2013 h⁻¹.
On to `O=C1CC[C@@]2(O)[C@H]3Cc4ccc(O)c5c4[C@@]2(CCN3CC2CC2)[C@H]1O5` [naltrexone], for which, in series [2] (in vivo), the Protein binding entry was “approximately 21%”. The Oral bioavailability in series [2] (oral) is given as 5-40%.
